Measurements as given in patent publication USRE47589E1, “Phosphoramidate compounds and methods of use” (NuCana plc, priority 2003, dated 2019).

Assays:
Assay type in all cases: cell-based
[1] = system: human breast cancer cell line (MDA MB 231); test: MTT cytotoxicity assay, breast cancer cell line; details: Homo sapiens, MDA-MB-231, read-out: EC50/μM Breast MDA MB231
Protocol: (§1) The compounds include those whose preparations are described above and compounds made by preparative methods corresponding to the methods described above.
(§2) Compounds were diluted over a range of concentrations and added to cells over 1 to 3 days. The cytotoxity was determined using a MTT assay at the end of each experiment.

[2] = system: human colon cancer cell line (HT115); test: MTT cytotoxicity assay, colon cancer cell line; details: Homo sapiens, HT115, read-out: EC50/μM Colon HT115, MTT assay, compounds added to cells over 1 to 3 days
Protocol: as §1, §2

[3] = system: human prostate cancer cell line (PC-3); test: MTT cytotoxicity assay, prostate cancer cell line; details: Homo sapiens, read-out: EC50/μM Prostate PC-3
Protocol: as §1, §2

| SMILES | EC50 [1] [µM] | EC50 [2] [µM] | EC50 [3] [µM] |
| --- | --- | --- | --- |
| O=C(OCc1ccccc1)C1(NP(=O)(OC[C@H]2O[C@@H](n3cc(/C=C/Br)c(=O)[nH]c3=O)CC2O)Oc2ccc([N+](=O)[O-])cc2)CCCC1 (stereo partly drawn) [Example 21, (E)-5-(2-Bromovinyl)-2′-deoxyuridine-5′-[para-nitrophenyl-(benzoxy-α,α-cycloleucinyl)]-phosphate] | 8.4 | 17.2 | 2.2 |
| COC(=O)C1(NP(=O)(OC[C@H]2O[C@@H](n3cc(/C=C/Br)c(=O)[nH]c3=O)CC2O)Oc2ccc(F)cc2)CCCC1 (stereo partly drawn) [Example 22, (E)-5-(2-Bromovinyl)-2′-deoxyuridine-5′-[para-fluorophenyl-(methoxy-α,α-cycloleucinyl)]-phosphate] | 57 | 59.7 | 51 |
| CCOC(=O)C1(NP(=O)(OC[C@H]2O[C@@H](n3cc(/C=C/Br)c(=O)[nH]c3=O)CC2O)Oc2ccc(F)cc2)CCCC1 (stereo partly drawn) [Example 23, (E)-5-(2-Bromovinyl)-2′-deoxyuridine-5′-[para-fluorophenyl-(ethoxy-α,α-cycloleucinyl)]-phosphate] | 9.9 | 18.1 | 2.7 |
| O=C(OCc1ccccc1)C1(NP(=O)(OC[C@H]2O[C@@H](n3cc(/C=C/Br)c(=O)[nH]c3=O)CC2O)Oc2ccc(F)cc2)CCCC1 (stereo partly drawn) [Example 24, (E)-5-(2-Bromovinyl)-2′-deoxyuridine-5′-[para-fluorophenyl-(benzoxy-α,α-cycloleucinyl)]-phosphate] | 9.4 | 17 | 3.7 |
| COC(=O)C(C)(C)NP(=O)(OC[C@H]1O[C@@H](n2cc(/C=C/Br)c(=O)[nH]c2=O)CC1O)Oc1ccccc1 (stereo partly drawn) [Example 26, (E)-5-(2-bromovinyl)2′-deoxyuridine-5′-[phenyl-(methoxy-α,α-dimethylglycinyl)]-phosphate] | 41.1 | 77.9 | 1.5 |
| CCOC(=O)C(C)(C)NP(=O)(OC[C@H]1O[C@@H](n2cc(/C=C/Br)c(=O)[nH]c2=O)CC1O)Oc1ccccc1 (stereo partly drawn) [Example 27, (E)-5-(2-bromovinyl)-2′-deoxyuridine-5′-[phenyl-(ethoxy-α,α-dimethylglycinyl)]-phosphate] | 218 | 39.7 | 76.1 |
| CCOC(=O)C1(NP(=O)(OC[C@H]2O[C@@H](n3cc(/C=C/Br)c(=O)[nH]c3=O)CC2O)Oc2ccc(C(F)(F)F)cc2)CCCC1 (stereo partly drawn) [Example 29, (E)-5-(2-Bromovinyl)-2′-deoxyuridine-5′-[para-trifluorophenyl-(ethoxy-α,α-cycloleucinyl)]-phosphate] | 45.6 | 15.1 | 4.3 |
| COC(=O)C1(NP(=O)(OC[C@H]2O[C@@H](n3cc(/C=C/Br)c(=O)[nH]c3=O)CC2O)Oc2ccc(Cl)cc2)CCCC1 (stereo partly drawn) [Example 32, (E)-5-(2-Bromovinyl)-2′-deoxyuridine-5′-[para-chlorophenyl-(methoxy-α,α-cycloleucinyl)]-phosphate] | 2.6 | 99.3 | 52.2 |
| CCOC(=O)C1(NP(=O)(OC[C@H]2O[C@@H](n3cc(/C=C/Br)c(=O)[nH]c3=O)CC2O)Oc2ccc(Cl)cc2)CCCC1 (stereo partly drawn) [Example 33, (E)-5-(2-Bromovinyl)-2′-deoxyuridine-5′-[para-chlorophenyl-(ethoxy-α,α-cycloleucinyl)]-phosphate] | 12 | 97.9 | 83.2 |
| O=C(OCc1ccccc1)C1(NP(=O)(OC[C@H]2O[C@@H](n3cc(/C=C/Br)c(=O)[nH]c3=O)CC2O)Oc2ccc(Cl)cc2)CCCC1 (stereo partly drawn) [Example 34, (E)-5-(2-Bromovinyl)-2′-deoxyuridine-5′-[para-chlorophenyl-(benzoxy-α,α-cycloleucinyl)]-phosphate] | 3.9 | 8.9 | 6.3 |
| COC(=O)[C@H](CC(C)C)NP(=O)(OC[C@H]1O[C@@H](n2cc(/C=C/Br)c(=O)[nH]c2=O)CC1O)Oc1ccccc1 (stereo partly drawn) [Example 35, (E)-5-(2-Bromovinyl)-2′-deoxyuridine-5′-[phenyl-(methoxy-L-leucinyl)]-phosphate] | 18.5 | 7.7 | 75.7 |
